Measurements published in ChEMBL document CHEMBL5604063, “ASAP - DENV-2 NS2B-NS3 protease fluorescence dose response” (2024).
Several values for one entry are separate records, joined by “and”; a condition that tells them apart may be missing. Equal values may be shown once.

Columns and labels:
Genome polyprotein [1] = molecular target: T1, Genome polyprotein (dengue virus type 2, UniProt P29990); format: functional, Thailand/16681/1984
Genome polyprotein [2] = molecular target: T1, Genome polyprotein; format: functional, Thailand/16681/1984; remark: listed apart in the source

T1 sequence (P29990 1346-1475 limits assumed): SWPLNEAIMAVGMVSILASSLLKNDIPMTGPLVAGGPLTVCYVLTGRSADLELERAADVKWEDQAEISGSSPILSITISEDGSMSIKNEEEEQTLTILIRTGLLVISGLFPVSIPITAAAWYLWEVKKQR
T1 sequence (P29990 1476-2093 limits assumed): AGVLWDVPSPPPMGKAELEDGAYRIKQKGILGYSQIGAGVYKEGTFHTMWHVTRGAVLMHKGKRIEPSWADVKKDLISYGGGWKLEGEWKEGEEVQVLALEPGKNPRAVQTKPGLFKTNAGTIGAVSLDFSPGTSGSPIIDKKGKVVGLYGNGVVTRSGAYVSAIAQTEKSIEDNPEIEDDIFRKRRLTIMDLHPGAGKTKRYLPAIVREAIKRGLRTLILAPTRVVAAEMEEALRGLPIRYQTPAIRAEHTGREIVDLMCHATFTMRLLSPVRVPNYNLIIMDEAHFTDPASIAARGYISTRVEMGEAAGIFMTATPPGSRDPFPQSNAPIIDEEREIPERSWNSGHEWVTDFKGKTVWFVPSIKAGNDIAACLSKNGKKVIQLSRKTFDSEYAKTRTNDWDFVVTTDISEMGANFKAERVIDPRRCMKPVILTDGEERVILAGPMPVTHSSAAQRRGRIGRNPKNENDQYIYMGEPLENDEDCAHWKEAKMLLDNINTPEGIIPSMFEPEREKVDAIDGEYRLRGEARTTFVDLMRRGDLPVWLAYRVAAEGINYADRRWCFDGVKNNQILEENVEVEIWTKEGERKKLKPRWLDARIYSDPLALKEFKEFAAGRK

| Compound | IC50 (Genome polyprotein [1]) | IC50 (Genome polyprotein [2]) |
| --- | --- | --- |
| O=C(Nc1ccc2c(c1)CNC2)c1ccc2c(c1)C1(CC1)C(=O)N2 | > 99.5 µM | > 100 µM |
| O=C1Cc2c(cccc2C(=O)Nc2ccc3c(c2)[C@H](O)CCO3)N1 | > 99.5 µM | > 100 µM |
| CSc1cc2c(cc1NC(=O)c1cc(F)cc3[nH]ncc13)CNC2 | 71.1 µM | > 100 µM |
| O=C1Cc2c(cccc2C(=O)Nc2ccnn2Cc2ccncc2)N1 | > 99.5 µM | > 100 µM |
| CN1CCC[C@H](c2nc3c(C(=O)Nc4ccc5c(c4)CNC5)cc(F)cc3[nH]2)C1=O | > 99.5 µM | > 100 µM |
| O=C(NCC(F)F)[C@H](Nc1ccc2c(c1)CNC2)c1cc(Br)cc2nc[nH]c12 | > 99.5 µM | > 100 µM |
| O=C1Cc2c(cccc2C(=O)Nc2nnc3n2CCCS3)N1 | > 99.5 µM | > 100 µM |
| O=C(O)COc1ccc(Cl)cc1[C@H](Nc1ccc2c(c1)CNC2)C(=O)NCC(F)F | > 99.5 µM | > 100 µM |
| NC(=O)c1cn(C2CCCC2)nc1NC(=O)c1cccc2c1CC(=O)N2 | > 99.5 µM | > 100 µM |
| O=C1Cc2c(cccc2C(=O)Nc2cnn(Cc3ccncc3)c2)N1 | > 99.5 µM | > 100 µM |
| CC(C)(C)OC(=O)N1Cc2cc(NC(=O)c3cc(Cl)cc4c3cnn4[C@@H]3CCCCO3)ccc2[C@H]1CO | > 99.5 µM | > 100 µM |
| C=C(C)c1ccc(Cl)cc1[C@H](Nc1ccc2c(c1)CNC2)C(=O)NCC(F)F | > 99.5 µM | > 100 µM |
| CO[C@]1(C)C(=O)Nc2cc(F)cc(C(=O)Nc3ccc4c(c3)CNC4)c21 | > 99.5 µM | > 100 µM |
| O=C1Cc2c(cccc2C(=O)Nc2ccc3c(c2)CCNCC3)N1 | 21 µM | 33.8 µM |
| CNC(=O)c1cc(Br)cc([C@H](Nc2ccc3c(c2)CNC3)C(=O)NCC(F)F)c1 | > 99.5 µM | > 100 µM |
| O=C(Nc1ccc2c(c1)CN[C@H]2CC1CC1)c1cc(F)cc2[nH]ncc12 | 37.9 µM | 31.3 µM and 22.1 µM |
| O=C1Nc2ccc(C(=O)Nc3ccc4c(c3)CNC4)cc2C1=O | 2.66 µM and 1.99 µM | 5.35 µM and 5.79 µM |
| CCS(=O)(=O)c1ccc(Cl)cc1[C@H](Nc1ccc2c(c1)CNC2)C(=O)NCC(F)F | > 99.5 µM | > 100 µM |
| CC(C)(C)OC(=O)N1Cc2ccc(N[C@H](C(=O)O)c3cc(Cl)cc4[nH]ncc34)cc2C1 | 78.2 µM | 57.6 µM and 41.9 µM |
| Cc1c(C(=O)Nc2cc(C(=O)N3CC4(CCO4)C3)ccn2)cc(C2CC2)n1C | > 99.5 µM | > 100 µM |

| Compound | IC50 (Genome polyprotein [1]) | IC50 (Genome polyprotein [2]) |
| --- | --- | --- |
| O=C1Cc2c(cccc2C(=O)Nc2cnc(OC3CCC3)nc2)N1 | > 99.5 µM | > 100 µM |
| Cn1nc([C@H](Nc2cc([C@H]3CCOC3)ccn2)C(F)(F)F)cc1C1CC1 | > 99.5 µM | > 100 µM |
| Cc1cc(CN)cc(NC(=O)c2cccc3c2CC(=O)N3)c1 | 75.9 µM | > 100 µM |
| O=C1Cc2c(cccc2C(=O)Nc2ccc(Cl)c(CO)n2)N1 | > 99.5 µM | > 100 µM |
| N#CCc1cc(NC(=O)c2cc(F)cc3[nH]ncc23)cc2c1CNC2 | 23.5 µM | 38.3 µM and 18.9 µM |
| C[C@]1(OCCO)C(=O)Nc2cc(F)cc(C(=O)Nc3ccc4c(c3)CNC4)c21 | > 99.5 µM | > 100 µM |
| O=C(NCC(F)F)[C@H](Nc1ccc2c(c1)CNC2)c1cc(Cl)cc(Cl)c1OCCN1CCOCC1 | > 99.5 µM | > 100 µM |
| CC(=O)N[C@]1(C)C(=O)Nc2cc(F)cc(C(=O)Nc3ccc4c(c3)CNC4)c21 | > 99.5 µM | > 100 µM |
| O=C1Cc2c(cccc2C(=O)Nc2ccc3c(c2)CNCC3)N1 | 76.4 µM | > 100 µM |
| O=C(NCC(F)F)[C@H](Nc1cnc2c(c1)CNC2)c1cc(Cl)cc(C2CC2)c1 | > 99.5 µM | > 100 µM |
| CC(C)Oc1ccc(Cl)cc1[C@H](Nc1ccc2c(c1)CNC2)C(=O)NCC(F)F | > 99.5 µM | > 100 µM |
| NCCCn1c(C2CC2)cc(C(=O)Nc2cc([C@H]3CCOC3)ccn2)c1C1CC1 | > 99.5 µM | > 100 µM |
| O=C(NCC(F)F)[C@H](Nc1ccc2c(c1)CNC2)c1cc(Br)ccc1OCc1ccccn1 | > 99.5 µM | > 100 µM |
| Clc1cc(CNc2ccc3c(c2)[C@@H]2CC[C@H]3N2)c2cn[nH]c2c1 | > 99.5 µM | > 100 µM |
| O=C1Cc2c(cccc2C(=O)Nc2cccc(Cc3nn[nH]n3)c2)N1 | > 99.5 µM | > 100 µM |
| O=C1Cc2c(cccc2C(=O)Nc2ccc3c(c2)CNCCO3)N1 | > 99.5 µM | > 100 µM |
| NCc1cccc(NC(=O)c2cccc3c2CC(=O)N3)c1 | > 99.5 µM | > 100 µM |
| CS(=O)(=O)c1cncc(-c2cc(F)cc(C(=O)Nc3ccc4c(c3)CNC4)c2)c1 | > 99.5 µM | > 100 µM |
| O=C(NCC(F)F)[C@H](Nc1ccc2c(c1)CNC2)c1cc(Br)cc2cn[nH]c12 | > 99.5 µM | > 100 µM |
| CC(=O)N(c1ccc2c(c1)CNC2)[C@H](C(=O)NCC(F)F)c1cc(Cl)cc(C2CC2)c1 | > 99.5 µM | > 100 µM |

| Compound | IC50 (Genome polyprotein [1]) | IC50 (Genome polyprotein [2]) |
| --- | --- | --- |
| O=C(NCC(F)F)[C@H](Nc1ccc2c(c1)CNC2)c1cc(Br)ccc1C1CC1 | > 99.5 µM | > 100 µM |
| Nc1ccncc1-c1cc(F)cc(C(=O)Nc2ccc3c(c2)CNC3)c1 | > 99.5 µM | > 100 µM |
| CCc1cnc2c(NC(=O)c3cccc4c3CC(=O)N4)cnn2c1 | > 99.5 µM | > 100 µM |
| C[C@H]1C(=O)Nc2ccc(C(=O)Nc3ccc4c(c3)CNC4)cc21 | 34.5 µM | 25.1 µM and 17.2 µM |
| N#Cc1c[nH]c2c(C(=O)Nc3ccc4c(c3)CNC4)cccc12 | > 99.5 µM | > 100 µM |
| O=C1Cc2c(cccc2C(=O)Nc2ccc3c(n2)CNC3)N1 | > 99.5 µM | > 100 µM |
| NCCc1cccc(NC(=O)c2cccc3c2CC(=O)N3)c1 | > 99.5 µM | > 100 µM |
| O=C(NCC(F)F)[C@H](Nc1ccc2c(c1)CNC2)c1cc(Br)cc2ccccc12 | > 99.5 µM | > 100 µM |
| O=C(NCC(F)F)[C@H](Nc1ccc2c(c1)CNC2)c1cc(Br)ccc1Oc1ccc(Cl)c(Cl)c1 | > 99.5 µM | > 100 µM |
| Cc1[nH]c2c(C(=O)Nc3ccc4c(c3)CNC4)cccc2c1C | > 99.5 µM | > 100 µM |
| O=C(Nc1cc2c(cn1)CNC2)c1cc(F)cc2[nH]ncc12 | > 99.5 µM | > 100 µM |
| O=C(O)C[C@H]1NCc2cc(NC(=O)c3cc(Cl)cc4[nH]ncc34)ccc21 | > 99.5 µM | > 100 µM |
| O=C(NCC(F)F)[C@H](Nc1ccc2c(c1)CNC2)c1cc(Cl)ccc1OC[C@H]1CCCO1 | > 99.5 µM | > 100 µM |
| O=C(Nc1ccc2c(c1)CNC2)c1cccc2c3c([nH]c12)CCC3 | > 99.5 µM | > 100 µM |
| O=C1CCc2cc(C(=O)Nc3ccc4c(c3)CNC4)cc(F)c2N1 | > 99.5 µM | > 100 µM |
| CC(C)O[C@]1(C)C(=O)Nc2cc(F)cc(C(=O)Nc3ccc4c(c3)CNC4)c21 | > 99.5 µM | > 100 µM |
| Cc1c(C(=O)Nc2cc(C(=O)N3CC(C(N)=O)C3)ccn2)cc(C2CC2)n1C | > 99.5 µM | > 100 µM |
| C[C@H](NC(=O)c1cccc2c1CC(=O)N2)c1nnc2n1CCCC2 | > 99.5 µM | > 100 µM |
| N[C@H]1Cc2ccc(NC(=O)c3cccc4c3CC(=O)N4)cc2C1 | 20.5 µM | 48.5 µM and 56.1 µM |
| CC(C)n1nncc1-c1cc(F)cc(C(=O)Nc2ccc3c(c2)CNC3)c1 | 89 µM | > 100 µM |
